Laboratory results reported in US6767890B1, “Peptides having anti-cancer and anti-inflammatory activity” (priority 1998, dated 2004).
Several values for one entry are separate records, joined by “and”; a condition that tells them apart may be missing. Equal entries are not always repeated.

Tested on: ovalbumin-induced bronchoconstriction
Experiment: Pulmonary, Histamine H3 (ovalbumin-induced bronchoconstriction)
Type: in vivo, guinea pig
Settings: Peptide PO 10 mg/kg, R-α-methylhistamine IV 30 mg/kg
Method: For in vivo assay, distilled water and saline was used as vehicle in oral and intraperitoneal administration, respectively. Dosing volume was 20 ml/kg for mice or 10 ml/kg for rats.
A group of Duncan Hartley derived male or female guinea pigs weighing 250±50 gms were anesthetized with pentobarbital sodium (50 mg/kg IP plus an additional 15 mg/kg IP if required) and succinylcholine chloride (2 mg/animal IP) was subsequently administered to prevent spontaneous respiration. Body temperature was maintained at 37° to 38° C. The trachea was cannulated and the guinea pig ventilated with a Harvard rodent respirator in a closed system. Tracheal pressure (TP) was recorded through a side-arm of the cannula connected to a P23ID Statham transducer. Respiratory rate set at 50 strokes/minute with a stroke volume (approximately 1 ml/100 g) sufficient to produce a baseline tracheal pressure of 6 cm H2O. Mean arterial pressure was monitored from a cannulated carotid artery, and heart rate was obtained from chest electrodes arranged for lead II. The jugular vein was cannulated for IV vehicle or drug administration in a volume of 1 ml/kg. Guinea pigs were sensitized with IP injections of ovalbumin 0.5 μg+Al(OH)3 1 mg (0.5 ml/animal) on days 1, and boosted with same dosage of ovalbumin and Al(OH)3 vaccine on day 8; and the animals were ready to be challenged between days 19 and 23 to get a submaximal ovalbumin (50 μg/kg IV)-induced bronchoconstriction, reflected as an increase in tracheal pressure (cm H2O). […]. Test substances were administered PO (10 mg/kg) at 60 minutes before ovalbumin (50 μg/kg IV) challenge in 3 guinea pigs. Tracheal pressure, blood pressure and heart rate were measured immediately before and after ovalbumin challenge.

LEU-PRO-PRO-SER-ARG [Peptide]
Inc. of TP X ± SEM (group mean, N=3): 31.5 ± 2.3 cm H2O
Inc. of TP Ind. (individual guinea pig, tracheal pressure after ovalbumin 50 μg/kg IV): 27.5 cm H2O and 35.5 cm H2O and 31.5 cm H2O
% INH. (inhibition of induced bronchoconstriction relative to vehicle): −6.8%
